Experimental data reported in patent publication US20110092488A1, “Quninoline Methanol Compounds for the Treatment and Prevention of Parasitic Infections” (priority 2005, published 2011).
Like-named read-outs stand apart in the source and are kept apart here.

Legend:
[1] = system: FVO strain of P. falciparum; experiment: Efficacy in P. falciparum-challenged Aotus monkeys; type: in vivo, Plasmodium falciparum in Aotus lemurinus lemurinus
Protocol: (§1) The P. berghei-mouse efficacy data were obtained from the WRAIR chemical information system (subcutaneous testing) or from recent tests conducted at AFRIMS, Thailand or at the University of Miami using a modified version of the Thompson test. Groups of five mice were inoculated through i.p. injection on day 0 (usually with 1×106 P. berghei-parasitized erythrocytes). The drugs in Table 1 were administered either subcutaneously or orally for three days (usually on days 3-5) at doses of 1.25-160 mg/kg in two to four fold increments. Cure was defined as survival until day 60 (subcutaneous dosing) or day 31 post-treatment (oral dosing). […] The minimum effective dose was the lowest dose level that cured at least one of five mice. The Aotus studies were performed according to Obaldia; Detection of Klebsiella pnuumoniae antibodies in Aotus l. lemurinus (Panamanian owl monkey) using an enzyme linked immunosorbent assay (ELIA) test; Lab Anim (25)133-141 (1991) and Obaldia et al., WR 238605, chloroquine, and their combinations as blood schizonticides against a chloroquine-resistant strain of Plasmodium vivax in Aotus monkeys; Am. J. Trop. Med. Hyg. (56)508-510 (1997), which are incorporated by reference, herein. Groups of two Aotus lemurinus 6 lemurinus of the karyotype VIII or IX (27) male and female monkeys with weights ranging from 742-970 g were inoculated with 5×10^6 parasites of either the FVO strain of P. falciparum or the AMRU1 strain of P. vivax. Both of these strains are chloroquine resistant. […] Monkeys were examined and thick Giemsa-stained blood smears were prepared and enumerated daily (17) to monitor the course of infection. […] In some instances, a high dose of the test drug was used to retreat monkeys instead of the mefloquine rescue. Monkeys are considered cured if they are parasite free 90 days post treatment. […] Plasma samples were taken from the monkeys in some studies for quantification of metabolites. Additional blood samples were taken as appropriate for complete blood counts and serum chemistry. Research was conducted in compliance with the Animal Welfare Act and other federal statutes and regulations relating to animals and experiments involving animals and adheres to principles stated in the Guide for the Care and Use of Laboratory Animals, NRC Publication, 1996 edition (34).

[2] = system: Plasmodium falciparum malaria; conditions: P. falciparum malaria, South East Asia; WR030090: field trials; cited from earlier work
[3] = mouse, in vivo
P. falciparum TM91C235 = experiment: In vitro antimalarial activity against P. falciparum TM91C235; type: cell-based, Plasmodium falciparum
Protocol: The in vitro activities of AAQMs against P. falciparum strains W2, D6, TM91C235 and TM90C2A were evaluated using the method of Desjardins et al. as modified by Milhous et al. W2 is chloroquine resistant and mefloquine sensitive, D6 is chloroquine sensitive but naturally less susceptible to mefloquine, TM91C235 is resistant to mefloquine, chloroquine and pyrimethamine as is TM90C2A, however this latter parasite is a two pfmdr1 copy strain. We routinely run mefloquine in this screen as a control to ensure assay validity.

[4] = system: Balb/c 3T3 mouse fibroblast cells; experiment: 3T3 neutral red uptake (NRU) phototoxicity test; type: cell-based
Source text: A pharmacophore for phototoxicity was developed to be used as an in silico screening tool to determine the minimum phototoxic concentration for a number of AAQMS (WR069878 and those indicated in Table 5). Minimum phototoxic concentration in a yeast assay for a number of AAQMS, as per Ison et al.; Phototoxicity of Quinoline methanols and other drugs in mice and yeast; J. Invest. Dermatol. (52)193-198 (1969) were used to generate a three-dimensional pharmacophore model using the HypoGen algorithm of the […]® (Accelrys software Inc.) methodology as per Bhattacharjee et al.; A 3D QSAR pharmacophore model and quantum chemical structure—activity analysis of chloroquine(CQ)-resistance reversal; J. Chem Inf. Comput Sci. (42) 1212-1220 (2002), and Dow et al.; as discussed in Antimicrob Agents Chemother. (48)2624-2632 (2004), cited above, both Bhattacharjee et al. and Dow et al, incorporated herein, by reference. The structures of clinically used quinoline methanols were mapped onto the pharmacophores and estimated values for minimum phototoxic concentration were generated. The 3T3 neutral red uptake (NRU) phototoxicity test, conducted by MB Research Laboratories (Spinnerstown, Pa.), was used to identify quinoline methanols (WR069878 and those in Table 5) that have the potential to exert in vivo phototoxicity after systemic application. Briefly, the central 60 wells of two 96-well plates per AAQM were seeded with Balb/c 3T3 mouse fibroblast cells and maintained in culture for 24 hrs. These plates were then pre-incubated with a range of eight different concentrations of test compound (six wells per concentration) for one hour. Next, one plate was treated with a UVA dose of 5 J/cm2 by irradiating for 50 min at 1.7 mW/cm2, whereas the other plate remained non-treated and in the dark. Next, the treatment medium was replaced with culture medium and cell viability was determined after 24 hrs by measuring neutral red uptake for 3 hrs. Finally, the 3T3 NRU Phototox Prediction Software (version 2.0, ZEBET) was used to calculate EC50 values and Photo-Irritant Factors (PIF) for each compound. […]

[5] = Aotus, 10 mg/kg/day oral x7
Protocol: as §1

yeast = conditions: Ison and Davis, 1969; cited from earlier work
[6] = by 'injection'; Ison and Davis, 1969; cited from earlier work

CCCCN(CCCC)CC(O)c1cc(-c2ccc(Cl)c(Cl)c2)nc2c(Cl)cc(Cl)cc12 (stereo not drawn) [WR030090]
Outcome in Aotus, earlier studies ([1]; 10 mg/kg/day x7, WRAIR archival data): cleared but did not cure infections | Outcome in Aotus ([1]; 10 mg/kg/day x7 oral, groups of two, Cure = parasite free 90 days, R = average day of recrudescence, Failure = rescued with mefloquine): Failure | Cure rate [2]: at least 88% | Phototoxicity in mice [3]: are phototoxic^d | Activity against P. falciparum TM91C235 (IC50 in ng/ml) (P. falciparum TM91C235): 11 ng/mL | TM91C235 IC90 (P. falciparum TM91C235; Table 2): 0.052 mg/L | Photo Irritant Factor (PIF) [4]: 105.7 | Mean peak concentration [5]: 307 ng/mL | Plasma conc on day 1 (ng/ml) 2 h ([5]; day 1, 2 h): 597 ng/mL | Plasma conc on day 1 (ng/ml) 24 h ([5]; day 1, 24 h): 11 ng/mL | Plasma conc. on day 7 (ng/ml) 2 h ([5]; day 7, 2 h): 16 ng/mL | Plasma conc. on day 7 (ng/ml) 24 h ([5]; day 7, 24 h): 5.6 ng/mL

OC(c1cc(-c2ccccc2)nc2c(Cl)cc(Cl)cc12)C1CCCCN1 (stereo not drawn) [WR007930]
Yeast minimum phototoxic concentration (yeast): 31 mg/ml^c | Photo Irritant Factor (PIF) ([4]; UVA 5 J/cm2, potential to be phototoxic if PIF > 5.0): 29.0 | Minimum phototoxic dose in mice [6]: Minimum phototoxic dose is 7 mg/kg
